# ± gives the expanded uncertainty stated by the source.
# Conditions: Liquid, Ebulliometric method (Recirculating still)
smiles,measurement,setting,value
C=C1CC/C=C(\C)CC[C@@H]2[C@@H]1CC2(C)C,vapor or sublimation pressure,526.4 K,101.33 ± 4.1 kPa
same,vapor or sublimation pressure,526.47 K,101.33 ± 4.1 kPa
same,vapor or sublimation pressure,526.53 K,101.33 ± 4.1 kPa
Cc1ccc(C(C)C)cc1 [1-(1-methylethyl)-4-methylbenzene],vapor or sublimation pressure,449.7 K,101.33 ± 4.1 kPa
"C=C1C2CCC(C2)C1(C)C (stereo unspecified) [2,2-dimethyl-3-methylenebicyclo[2.2.1]heptane]",vapor or sublimation pressure,432.73 K,101.33 ± 4.1 kPa
same,vapor or sublimation pressure,432.74 K,101.33 ± 4.1 kPa
same,vapor or sublimation pressure,432.76 K,101.33 ± 4.1 kPa
same,vapor or sublimation pressure,432.8 K,101.33 ± 4.1 kPa
CC1=CCC2CC1C2(C)C (stereo unspecified) [2-pinene],vapor or sublimation pressure,428.64 K,101.33 ± 4.1 kPa
same,vapor or sublimation pressure,428.65 K,101.33 ± 4.1 kPa
CC1=CC[C@@H]2[C@H](C1)C2(C)C [(+)-3-carene],vapor or sublimation pressure,442.63 K,101.33 ± 4.1 kPa

# Reference: the NIST ThermoML archive (doi:10.1016/j.tca.2019.178318)
